According to patent US9546153B2, “Bicyclic heterocycle substituted pyridyl compounds useful as kinase modulators” (BRISTOL-MYERS SQUIBB COMPANY, priority 2012, dated 2017):

Tested on: TLR2 induced IL-6 in peripheral blood mononuclear cells (PBMCs)
Test: PBMC TLR2 Induced IL-6 Assay
Format: cell-based, human
Details: Homo sapiens, PBMC, 5 h, human PBMCs, 10 μg/ml lipoteichoic acid for 5 hours, IL-6 by ELISA; EC50 determinations are indicated with an asterisk; read-out: Cell EC50 (asterisk)
Experimental: Peripheral blood mononuclear cells (PBMCs) were isolated from human blood containing the anti-coagulant EDTA (2.5 mM) by centrifugation over a FICOLL® gradient. PBMCs (250000 cells/well) were cultured in assay media (RPMI with 10% heat inactivated FCS) with compounds for 30 minutes at 37° C. in a 5% CO2 incubator. Following pretreatment with compounds, cells were stimulated for 5 hours with 10 μg/ml lipoteichoic acid (Invivogen, San Diego, Calif.), a TLR2 agonist. At the end of the culture, plates were centrifuged at 1800 rpm for 10 minutes to pellet the cells. Supernatants were harvested and analyzed for IL-6 levels by ELISA (BD Biosciences, San Jose, Calif.). Inhibition was calculated as either an IC50 or EC50. EC50 determinations are indicated with an asterisk.

`CC(C)(O)[C@H](F)CNC(=O)c1cnc(Nc2nc3ccnn3cc2F)cc1N[C@H]1CCC[C@H]1F` [Example 488] showed an EC50 of 192 nM.

Same assay, conditions: Homo sapiens, PBMC, 5 h, human PBMCs, 10 μg/ml lipoteichoic acid for 5 hours, IL-6 by ELISA; value without asterisk; read-out: Cell IC50

Going from `O=C(NC[C@@H](F)CO)c1cnc(Nc2ccc3[nH]c(=O)sc3c2)cc1NC1CCCC1` [Example 6] to `CC(C)(O)[C@H](F)CNC(=O)c1cnc(Nc2ccc3[nH]c(=O)sc3c2)cc1NC1CCCC1` [Example 34], the IC50 falls from 231 nM to 152 nM (1.5-fold).

Compared with `O=C(NC[C@@H](F)CO)c1cnc(Nc2ccc3ncsc3c2)cc1NC1CC1` [Example 7], `CC(C)(O)[C@H](F)CNC(=O)c1cnc(Nc2ccc3ncsc3c2)cc1NC1CCC1` [Example 46] is 4-fold lower in IC50: 732 nM for the first, 183 nM for the second.

First: CC(C)Nc1cc(Nc2ccc3ncsc3c2)ncc1C(=O)NC[C@@H](F)C(O)(C1CC1)C(F)(F)F (stereo partly drawn) [Example 30]
Second: CC(C)(O)[C@H](F)CNC(=O)c1cnc(Nc2ccc3ncsc3c2)cc1NCC(F)(F)F [Example 84]
The IC50 of the first is 2.2-fold lower: 228 nM for the first, 501 nM for the second. The first is the more potent here.

`CC(C)Nc1cc(Nc2ccc3[nH]c(=O)sc3c2)ncc1C(=O)NC[C@@H](F)C(C)(C)O` [Example 40] and `CC(C)Nc1cc(Nc2ccc3[nH]c(=O)oc3c2)ncc1C(=O)NC[C@@H](F)C(C)(C)O` [Example 393] are within 1.5-fold of each other in IC50: 503 nM for the first, 392 nM for the second.

Going from `CC(C)(O)[C@H](F)CNC(=O)c1cnc(Nc2ccc3ncsc3c2)cc1N[C@@H](c1cccc(F)c1)[C@H](O)CO` [Example 44] to `CC(C)(O)[C@H](F)CNC(=O)c1cnc(Nc2ccc3ncsc3c2)cc1N[C@@H](c1cc(Cl)cc(Cl)c1)[C@H](O)CO` [Example 77], the IC50 falls from 699 nM to 377 nM (1.9-fold).

First: CC(C)Nc1cc(Nc2ccc3ncccc3c2)ncc1C(=O)NC[C@@H](F)C(C)(C)O [Example 47]
Second: CC(C)Nc1cc(Nc2ccc3nscc3c2)ncc1C(=O)NC[C@@H](F)C(C)(C)O [Example 56]
The IC50 of the first is 1.7-fold higher: 571 nM for the first, 330 nM for the second. The second is the more potent here.

Compared with `CC(C)(O)[C@H](F)CNC(=O)c1cnc(Nc2ccc3ncsc3c2)cc1NCC1CC1` [Example 62], `CC(C)(O)[C@H](F)CNC(=O)c1cnc(Nc2ccc3ncsc3c2)cc1NC1CCCC1O` (stereo partly drawn) [Example 335] is 2.1-fold lower in IC50: 288 nM for the first, 135 nM for the second.

`CC(C)(O)[C@H](F)CNC(=O)c1cnc(Nc2ccc3nonc3c2)cc1NC1CC1` [Example 80] and `CC(C)(O)[C@H](F)CNC(=O)c1cnc(Nc2ccc3nonc3c2)cc1NC1CCOCC1` [Example 99] are within 1.5-fold of each other in IC50: 271 nM for the first, 258 nM for the second.

First: CC(C)(O)[C@H](F)CNC(=O)c1cnc(Nc2ccc3ncncc3c2)cc1NC1CC1 [Example 81]
Second: CC(C)(O)[C@H](F)CNC(=O)c1cnc(Nc2ccc3ncncc3c2)cc1NC1CCCC1F (stereo partly drawn) [Example 345]
The IC50 of the first is 2.5-fold lower: 100 nM for the first, 246 nM for the second. The first is the more potent here.

`CC(C)(O)[C@H](F)CNC(=O)c1cnc(Nc2ccc3ccncc3c2)cc1NC1CC1` [Example 132] and `CC(C)(O)[C@H](F)CNC(=O)c1cnc(Nc2nc3ccnn3cc2F)cc1NC1CC1` [Example 269] are within 1.5-fold of each other in IC50: 350 nM for the first, 445 nM for the second.

Going from `N#CCNC(=O)c1cnc(Nc2ccc3ncsc3c2)cc1NC1CCCC1` [Example 153] to `CC(C)(O)CCNC(=O)c1cnc(Nc2ccc3ncsc3c2)cc1N[C@H]1CC[C@@H](F)CC1` [Example 174], the IC50 falls from 510 nM to 150 nM (3.4-fold).

First: CC(C)CCNc1cc(Nc2ccc3ncsc3c2)ncc1C(=O)NC[C@@H](F)C(C)(C)O [Example 163]
Second: CC(C)CCNC(=O)c1cnc(Nc2ccc3ncsc3c2)cc1NC(C)C [Example 210]
The IC50 of the first is 2.4-fold lower: 230 nM for the first, 551 nM for the second.

`CC(C)Nc1cc(Nc2ccc3ncsc3c2)ncc1C(=O)NCC[C@@H](C)NC(=O)N1CCOCC1` [Example 182] and `CC(C)Nc1cc(Nc2ccc3ncsc3c2)ncc1C(=O)N[C@H]1CCN(S(C)(=O)=O)C1` [Example 215] are within 1.5-fold of each other in IC50: 508 nM for the first, 566 nM for the second.

Compared with `CC(C)(O)[C@H](F)CNC(=O)c1cnc(Nc2ccn3nccc3n2)cc1NCC(F)(F)F` [Example 238], `CCNc1cc(Nc2ccn3nccc3n2)ncc1C(=O)NC[C@@H](F)C(C)(C)O` [Example 239] is 1.6-fold lower in IC50: 595 nM for the first, 379 nM for the second. The second is the more potent here.

Compared with `CC(C)(O)[C@H](F)CNC(=O)c1cnc(Nc2ccn3nccc3n2)cc1NC1CCC1` [Example 241], `CC(C)(O)[C@H](F)CNC(=O)c1cnc(Nc2nc3ccnn3cc2F)cc1N[C@H]1CCC[C@@H]1O` [Example 466] is 2.4-fold lower in IC50: 516 nM for the first, 212 nM for the second.

`Cc1cc2nc(Nc3cc(NC(C)C)c(C(=O)NC[C@@H](F)C(C)(C)O)cn3)ccn2n1` [Example 250] and `CC(C)Nc1cc(Nc2ncc3ncccc3n2)ncc1C(=O)NC[C@@H](F)C(C)(C)O` [Example 370] are within 1.5-fold of each other in IC50: 748 nM for the first, 571 nM for the second.

Going from `Cc1cnc2ccc(Nc3cc(NC4CC4)c(C(=O)NC[C@@H](F)C(C)(C)O)cn3)nn12` [Example 276] to `CC(C)(O)[C@H](F)CNC(=O)c1cnc(Nc2ccc3ncoc3c2)cc1N[C@@H]1CCC[C@H]1O` [Example 336], the IC50 rises from 256 nM to 466 nM (1.8-fold). The first is the more potent here.

`CN(C)C(=O)c1ccc(Nc2cc(Nc3ccc4ncsc4c3)ncc2C(=O)NC[C@@H](F)C(C)(C)O)cc1` [Example 323] and `CC(C)(O)[C@H](F)CNC(=O)c1cnc(Nc2ccc3ncsc3c2)cc1Nc1ccc(-c2cc[nH]n2)cc1` [Example 414] are within 1.5-fold of each other in IC50: 207 nM for the first, 256 nM for the second.

For `CC(C)Nc1cc(Nc2ncc3ncsc3c2F)ncc1C(=O)NC[C@@H](F)C(C)(C)O` [Example 440], the IC50 was 330 nM.

Same assay, conditions: Homo sapiens, PBMC, 5 h, read-out: Cell IC50

`CNC(=O)c1cnc(Nc2ccc3ncsc3c2)cc1N[C@@H](c1ccccc1)[C@H](O)CO` [Example 143] and `CNC(=O)c1cnc(Nc2ccc3ncsc3c2)cc1N[C@H](CO)c1ccccc1` [Example 145] are within 1.5-fold of each other in IC50: 295 nM for the first, 260 nM for the second.

Same assay, conditions: human PBMCs, 10 μg/ml lipoteichoic acid for 5 hours, IL-6 by ELISA; value without asterisk; read-out: Cell IC50

Compared with `CC(O)([C@H](F)CNC(=O)c1cnc(Nc2ccc3ncsc3c2)cc1NC1CCCC1F)C(F)(F)F` (stereo in doubt) [Example 339], `CC(C)(O)[C@H](F)CNC(=O)c1cnc(Nc2ccc3ncsc3c2)cc1NCC1CCCC1F` (stereo partly drawn) [Example 116] is 1.6-fold lower in IC50: 460 nM for the first, 296 nM for the second.

`CC(O)([C@H](F)CNC(=O)c1cnc(Nc2ccc3ncsc3c2)cc1NC1CCCC1F)C(F)(F)F` (stereo in doubt) [Example 340] and `CC(C)(O)[C@H](F)CNC(=O)c1cnc(Nc2ccc3ncsc3c2)cc1NCC1CCCC1F` (stereo partly drawn) [Example 117] are within 1.5-fold of each other in IC50: 419 nM for the first, 363 nM for the second.

`CC(O)([C@H](F)CNC(=O)c1cnc(Nc2ccc3ncsc3c2)cc1NC1CCCC1F)C(F)(F)F` (stereo in doubt) [Example 341] and `CC(C)(O)[C@H](F)CNC(=O)c1cnc(Nc2ccc3ncsc3c2)cc1NCC1CCCC1F` (stereo partly drawn) [Example 118] are within 1.5-fold of each other in IC50: 97 nM for the first, 109 nM for the second.

First: CC(O)([C@H](F)CNC(=O)c1cnc(Nc2ccc3ncsc3c2)cc1NC1CCCC1F)C(F)(F)F (stereo in doubt) [Example 342]
Second: CC(C)Nc1cc(Nc2ccc3ncsc3c2)ncc1C(=O)NC[C@@H](F)C(O)(C1CC1)C(F)(F)F (stereo partly drawn) [Example 31]
The IC50 of the first is 3.5-fold lower: 71 nM for the first, 249 nM for the second. The first is the more potent here.

Going from `CC(C)Nc1cc(Nc2ccc3nsnc3c2)ncc1C(=O)NC[C@@H](F)C(O)C(C)C` (stereo partly drawn) [Example 22] to `CC(C)(O)[C@H](F)CNC(=O)c1cnc(Nc2ccc3ncsc3c2)cc1NCC1CCCC1O` (stereo partly drawn) [Example 112], the IC50 falls from 456 nM to 203 nM (2.2-fold). The second is the more potent here.

Compared with `CC(C)Nc1cc(Nc2ccc3nsnc3c2)ncc1C(=O)NC[C@@H](F)C(O)C(C)C` (stereo partly drawn) [Example 23], `CC(C)(O)[C@H](F)CNC(=O)c1cnc(Nc2ccc3ncsc3c2)cc1NCC1CCCC1O` (stereo partly drawn) [Example 113] is 4.9-fold higher in IC50: 165 nM for the first, 803 nM for the second.

Compared with `CC(C)(O)[C@H](F)CNC(=O)c1cnc(Nc2ccc3ncsc3c2)cc1NCC1CCCC1O` (stereo partly drawn) [Example 114], `CC(C)(O)[C@H](F)CNC(=O)c1cnc(Nc2ccc3ncsc3n2)cc1NC1CCOCC1F` (stereo partly drawn) [Example 418] is 16-fold lower in IC50: 491 nM for the first, 30 nM for the second. The second is the more potent here.

Compared with `CC(C)(O)[C@H](F)CNC(=O)c1cnc(Nc2ccn3nccc3n2)cc1NC1CCC(F)(F)C1` (stereo partly drawn) [Example 242], `CC(C)(O)[C@H](F)CNC(=O)c1cnc(Nc2ccn3nccc3n2)cc1NC1CCOCC1F` (stereo partly drawn) [Example 249] is 3.1-fold higher in IC50: 179 nM for the first, 554 nM for the second.

`CC(C)(O)[C@H](F)CNC(=O)c1cnc(Nc2ccn3nccc3n2)cc1NC1CCC(F)(F)C1` (stereo partly drawn) [Example 258] and `CC(C)(O)[C@H](F)CNC(=O)c1cnc(Nc2ccn3nccc3n2)cc1NC1CCOCC1F` (stereo partly drawn) [Example 266] are within 1.5-fold of each other in IC50: 432 nM for the first, 548 nM for the second.

Compared with `CC(C)(O)[C@H](F)CNC(=O)c1cnc(Nc2ccn3nccc3n2)cc1NC1CCC(F)(F)C1` (stereo partly drawn) [Example 259], `CC(C)(O)[C@H](F)CNC(=O)c1cnc(Nc2ccn3nccc3n2)cc1NC1CCOCC1F` (stereo partly drawn) [Example 270] is 2-fold higher in IC50: 132 nM for the first, 265 nM for the second. The first is the more potent here.

First: CC(C)(O)[C@H](F)CNC(=O)c1cnc(Nc2ccn3nccc3n2)cc1NC1CCOCC1F (stereo partly drawn) [Example 271]
Second: CC(C)(O)[C@H](F)CNC(=O)c1cnc(Nc2nc3ccnn3cc2F)cc1NC1CCCC1F (stereo partly drawn) [Example 463]
The IC50 of the first is 1.6-fold lower: 128 nM for the first, 204 nM for the second. The first is the more potent here.

Going from `Cc1cc2nc(Nc3cc(NC4CCC(F)C4)c(C(=O)NC[C@@H](F)C(C)(C)O)cn3)ccn2n1` (stereo partly drawn) [Example 380] to `CC(C)(O)[C@H](F)CNC(=O)c1cnc(Nc2nc3ccnn3cc2F)cc1NC1CCCC1F` (stereo partly drawn) [Example 471], the IC50 rises from 468 nM to 1200 nM (2.6-fold). The first is the more potent here.

Going from `CC(C)(O)[C@H](F)CNC(=O)c1cnc(Nc2ccc3ncccc3n2)cc1NC1CCCOC1` (stereo partly drawn) [Example 431] to `CC(C)(O)[C@H](F)CNC(=O)c1cnc(Nc2nc3ccnn3cc2F)cc1NC1CCCC1O` (stereo partly drawn) [Example 464], the IC50 rises from 220 nM to 843 nM (3.8-fold).

`CC(C)(O)[C@H](F)CNC(=O)c1cnc(Nc2ccc3ncccc3n2)cc1NC1CCCOC1` (stereo partly drawn) [Example 432] and `CC(C)(O)[C@H](F)CNC(=O)c1cnc(Nc2nc3ccnn3cc2F)cc1NC1CCCC1O` (stereo partly drawn) [Example 465] are within 1.5-fold of each other in IC50: 503 nM for the first, 388 nM for the second.

Molecule `CC(C)(O)[C@H](F)CNC(=O)c1cnc(Nc2nc3ccnn3cc2F)cc1NC1CCCC1F` (stereo partly drawn) [Example 472] has an IC50 of 1360 nM.
